Experimental data published in patent US6872690B2, “Herbicidal 2-alkynyl-pyri (mi) dines” (WYETH, priority 2001, dated 2005).

What was measured:
Format in all cases: in vivo
[1] = tested on: Abutilon theophrasti; test: Pre-emergence test; conditions: 3 weeks after treatment
Description: (§1) To evaluate their herbicidal activity, compounds according to the invention are tested using a representative range of plants:
(§2) The pre-emergence tests involve spraying a liquid formulation of the compound onto the soil in which the seeds of the plant species mentioned above has recently been sown.
(§3) The soil used in the tests is a prepared horticultural loam. The formulations used in the tests are prepared from solutions of the test compounds in acetone containing 0.4% by weight of an alkyl-phenol/ethylene oxide condensate available under the trade mark TRITON X-155. These acetone solutions are diluted with water and the resulting formulations applied at dosage levels corresponding to 0.013 kg, 0.025 kg, 0.100 kg or 0.400 kg of active material per hectare in a volume equivalent to 900 litres per hectare. In these tests untreated sown soil are used as controls. From 2 to 4 weeks after treatment, the tests are terminated and each pot is examined and rated according to the rating system set forth below: […]

[2] = tested on: Alopecurus myosuroides; test: Pre-emergence test; conditions: 3 weeks after treatment
Description: as §1, §2, §3

[3] = tested on: Cassia obtusifolia; test: Pre-emergence test; conditions: 3 weeks after treatment
Description: as §1, §2, §3

[4] = tested on: Digitaria sanguinalis; test: Pre-emergence test; conditions: 3 weeks after treatment
Description: as §1, §2, §3

[5] = tested on: Echinochloa crus-galli; test: Pre-emergence test; conditions: 3 weeks after treatment
Description: as §1, §2, §3

[6] = tested on: Galium aparine; test: Pre-emergence test; conditions: 3 weeks after treatment
Description: as §1, §2, §3

[7] = tested on: Glycine max; test: Pre-emergence test; conditions: 3 weeks after treatment
Description: as §1, §2, §3

[8] = tested on: Ipomoea hederacea; test: Pre-emergence test; conditions: 3 weeks after treatment
Description: as §1, §2, §3

[9] = tested on: Lamium purpureum; test: Pre-emergence test; conditions: 3 weeks after treatment
Description: as §1, §2, §3

[10] = tested on: Matricaria inodora; test: Pre-emergence test; conditions: 3 weeks after treatment
Description: as §1, §2, §3

[11] = tested on: Orysa sativa; test: Pre-emergence test; conditions: 3 weeks after treatment
Description: as §1, §2, §3

[12] = tested on: Setaria viridis; test: Pre-emergence test; conditions: 3 weeks after treatment
Description: as §1, §2, §3

[13] = tested on: Stellaria media; test: Pre-emergence test; conditions: 3 weeks after treatment
Description: as §1, §2, §3

[14] = tested on: Triticum aestivum; test: Pre-emergence test; conditions: 3 weeks after treatment
Description: as §1, §2, §3

[15] = tested on: Zea mays; test: Pre-emergence test; conditions: 3 weeks after treatment
Description: as §1, §2, §3

[16] = tested on: Abutilon theophrasti; test: Post-emergence herbicidal activity test; conditions: 2-4 weeks after treatment
Description: as §1
(§4) These acetone solutions are diluted with water and the resulting formulations applied at dosage levels equivalent of about 0.025 to 0. 4 kg per hectare of test compound per pot. After spraying the plants are placed on greenhouse benches and are cared for in the usual manner, commensurate with conventional greenhouse practices. From 2 to 4 weeks after treatment, the seedling plants are examined and rated according to the rating system provided above.

[17] = tested on: Alopecurus myosuroides; test: Post-emergence herbicidal activity test; conditions: 2-4 weeks after treatment
Description: as §1, §4

[18] = tested on: Cassia obtusifolia; test: Post-emergence herbicidal activity test; conditions: 2-4 weeks after treatment
Description: as §1, §4

[19] = tested on: Digitaria sanguinalis; test: Post-emergence herbicidal activity test; conditions: 2-4 weeks after treatment
Description: as §1, §4

[20] = tested on: Echinochloa crus-galli; test: Post-emergence herbicidal activity test; conditions: 2-4 weeks after treatment
Description: as §1, §4

[21] = tested on: Galium aparine; test: Post-emergence herbicidal activity test; conditions: 2-4 weeks after treatment
Description: as §1, §4

[22] = tested on: Glycine max; test: Post-emergence herbicidal activity test; conditions: 2-4 weeks after treatment
Description: as §1, §4

[23] = tested on: Ipomoea hederacea; test: Post-emergence herbicidal activity test; conditions: 2-4 weeks after treatment
Description: as §1, §4

[24] = tested on: Matricaria inodora; test: Post-emergence herbicidal activity test; conditions: 2-4 weeks after treatment
Description: as §1, §4

[25] = tested on: Orysa sativa; test: Post-emergence herbicidal activity test; conditions: 2-4 weeks after treatment
Description: as §1, §4

[26] = tested on: Setaria viridis; test: Post-emergence herbicidal activity test; conditions: 2-4 weeks after treatment
Description: as §1, §4

[27] = tested on: Stellaria media; test: Post-emergence herbicidal activity test; conditions: 2-4 weeks after treatment
Description: as §1, §4

[28] = tested on: Triticum aestivum; test: Post-emergence herbicidal activity test; conditions: 2-4 weeks after treatment
Description: as §1, §4

[29] = tested on: Zea mays; test: Post-emergence herbicidal activity test; conditions: 2-4 weeks after treatment
Description: as §1, §4

## COc1cc(C#Cc2ccccc2)nc(Oc2cc(C(F)(F)F)nn2C)c1 [Example 27]
[1]; 0.025 kg/ha
  Assessment (pre-emergence application) ABUTH: 5 (5-Definite injury)
[1]; 0.100 kg/ha
  Assessment (pre-emergence application) ABUTH: 5 (5-Definite injury)
[1]; 0.400 kg/ha
  Assessment (pre-emergence application) ABUTH: 8 (8-Approaching complete kill)
[2]; 0.025 kg/ha
  Assessment (pre-emergence application) ALOMY: 2 (2-Slight effect)
[2]; 0.100 kg/ha
  Assessment (pre-emergence application) ALOMY: 3 (3-Moderate effect)
[2]; 0.400 kg/ha
  Assessment (pre-emergence application) ALOMY: 6 (6-Herbicidal effect)
[3]; 0.025 kg/ha
  Assessment (pre-emergence application) CASOB: 7 (7-Good herbicidal effect)
[3]; 0.400 kg/ha
  Assessment (pre-emergence application) CASOB: 8 (8-Approaching complete kill)
[4]; 0.025 kg/ha
  Assessment (pre-emergence application) DIGSA: 6 (6-Herbicidal effect)
[4]; 0.100 kg/ha
  Assessment (pre-emergence application) DIGSA: 6 (6-Herbicidal effect)
[4]; 0.400 kg/ha
  Assessment (pre-emergence application) DIGSA: 8 (8-Approaching complete kill)
[5]; 0.025 kg/ha
  Assessment (pre-emergence application) ECHCG: 3 (3-Moderate effect)
[5]; 0.100 kg/ha
  Assessment (pre-emergence application) ECHCG: 4 (4-Injury)
[5]; 0.400 kg/ha
  Assessment (pre-emergence application) ECHCG: 7 (7-Good herbicidal effect)
[6]; 0.025 kg/ha
  Assessment (pre-emergence application) GALAP: 1 (1-Trace effect)
[6]; 0.100 kg/ha
  Assessment (pre-emergence application) GALAP: 2 (2-Slight effect)
[6]; 0.400 kg/ha
  Assessment (pre-emergence application) GALAP: 6 (6-Herbicidal effect)
[7]; 0.025 kg/ha
  Assessment (pre-emergence application) GLXMA: 2 (2-Slight effect)
[7]; 0.100 kg/ha
  Assessment (pre-emergence application) GLXMA: 2 (2-Slight effect)
[7]; 0.400 kg/ha
  Assessment (pre-emergence application) GLXMA: 3 (3-Moderate effect)
[8]; 0.025 kg/ha
  Assessment (pre-emergence application) IPOHE: 3 (3-Moderate effect)
[8]; 0.100 kg/ha
  Assessment (pre-emergence application) IPOHE: 4 (4-Injury)
[8]; 0.400 kg/ha
  Assessment (pre-emergence application) IPOHE: 6 (6-Herbicidal effect)
[9]; 0.025 kg/ha
  Assessment (pre-emergence application) LAMPU: 8 (8-Approaching complete kill)
[9]; 0.100 kg/ha
  Assessment (pre-emergence application) LAMPU: 8 (8-Approaching complete kill)
[9]; 0.400 kg/ha
  Assessment (pre-emergence application) LAMPU: 9 (9-Complete kill)
[10]; 0.025 kg/ha
  Assessment (pre-emergence application) MATIN: 8 (8-Approaching complete kill)
[10]; 0.100 kg/ha
  Assessment (pre-emergence application) MATIN: 8 (8-Approaching complete kill)
[10]; 0.400 kg/ha
  Assessment (pre-emergence application) MATIN: 8 (8-Approaching complete kill)
[11]; 0.025 kg/ha
  Assessment (pre-emergence application) ORYSA: 0 (0-No effect)
[11]; 0.100 kg/ha
  Assessment (pre-emergence application) ORYSA: 1 (1-Trace effect)
[11]; 0.400 kg/ha
  Assessment (pre-emergence application) ORYSA: 1 (1-Trace effect)
[12]; 0.025 kg/ha
  Assessment (pre-emergence application) SETVI: 5 (5-Definite injury)
[12]; 0.100 kg/ha
  Assessment (pre-emergence application) SETVI: 8 (8-Approaching complete kill)
[12]; 0.400 kg/ha
  Assessment (pre-emergence application) SETVI: 9 (9-Complete kill)
[13]; 0.025 kg/ha
  Assessment (pre-emergence application) STEME: 9 (9-Complete kill)
[13]; 0.100 kg/ha
  Assessment (pre-emergence application) STEME: 9 (9-Complete kill)
[13]; 0.400 kg/ha
  Assessment (pre-emergence application) STEME: 9 (9-Complete kill)
[14]; 0.025 kg/ha
  Assessment (pre-emergence application) TRZWA: 1 (1-Trace effect)
[14]; 0.100 kg/ha
  Assessment (pre-emergence application) TRZWA: 2 (2-Slight effect)
[14]; 0.400 kg/ha
  Assessment (pre-emergence application) TRZWA: 3 (3-Moderate effect)
[15]; 0.025 kg/ha
  Assessment (pre-emergence application) ZEAMX: 1 (1-Trace effect)
[15]; 0.100 kg/ha
  Assessment (pre-emergence application) ZEAMX: 2 (2-Slight effect)
[15]; 0.400 kg/ha
  Assessment (pre-emergence application) ZEAMX: 3 (3-Moderate effect)
[16]; 0.100 kg/ha
  Post-emergence application ABUTH: 5 (5-Definite injury)
[16]; 0.400 kg/ha
  Post-emergence application ABUTH: 6 (6-Herbicidal effect)
[17]; 0.100 kg/ha
  Post-emergence application ALOMY: 6 (6-Herbicidal effect)
[17]; 0.400 kg/ha
  Post-emergence application ALOMY: 8 (8-Approaching complete kill)
[18]; 0.100 kg/ha
  Post-emergence application CASOB: 7 (7-Good herbicidal effect)
[18]; 0.400 kg/ha
  Post-emergence application CASOB: 7 (7-Good herbicidal effect)
[19]; 0.100 kg/ha
  Post-emergence application DIGSA: 4 (4-Injury)
[19]; 0.400 kg/ha
  Post-emergence application DIGSA: 6 (6-Herbicidal effect)
[20]; 0.100 kg/ha
  Post-emergence application ECHCG: 5 (5-Definite injury)
[20]; 0.400 kg/ha
  Post-emergence application ECHCG: 7 (7-Good herbicidal effect)
[21]; 0.100 kg/ha
  Post-emergence application GALAP: 6 (6-Herbicidal effect)
[21]; 0.400 kg/ha
  Post-emergence application GALAP: 7 (7-Good herbicidal effect)
[22]; 0.100 kg/ha
  Post-emergence application GLXMA: 4 (4-Injury)
[22]; 0.400 kg/ha
  Post-emergence application GLXMA: 6 (6-Herbicidal effect)
[23]; 0.100 kg/ha
  Post-emergence application IPOHE: 6 (6-Herbicidal effect)
[23]; 0.400 kg/ha
  Post-emergence application IPOHE: 6 (6-Herbicidal effect)
[24]; 0.100 kg/ha
  Post-emergence application MATIN: 5 (5-Definite injury)
[24]; 0.400 kg/ha
  Post-emergence application MATIN: 7 (7-Good herbicidal effect)
[25]; 0.100 kg/ha
  Post-emergence application ORYSA: 3 (3-Moderate effect)
[25]; 0.400 kg/ha
  Post-emergence application ORYSA: 3 (3-Moderate effect)
[26]; 0.100 kg/ha
  Post-emergence application SETVI: 7 (7-Good herbicidal effect)
[26]; 0.400 kg/ha
  Post-emergence application SETVI: 8 (8-Approaching complete kill)
[27]; 0.100 kg/ha
  Post-emergence application STEME: 6 (6-Herbicidal effect)
[27]; 0.400 kg/ha
  Post-emergence application STEME: 8 (8-Approaching complete kill)
[28]; 0.100 kg/ha
  Post-emergence application TRZWA: 2 (2-Slight effect)
[28]; 0.400 kg/ha
  Post-emergence application TRZWA: 3 (3-Moderate effect)
[29]; 0.100 kg/ha
  Post-emergence application ZEAMX: 3 (3-Moderate effect)
[29]; 0.400 kg/ha
  Post-emergence application ZEAMX: 3 (3-Moderate effect)
